Molecular target: T1, GPCR P2Y6 receptor complex (Homo sapiens, UniProt Q15077)
T1 construct: made in house; host or cells: baculovirus-inoculated insect cell (membrane fragments)
Experiment: Nanocalorimetry measurement of agonist binding to a GPCR, amplified by G-protein hydrolysis of GTP
Format: biochemical
Settings: after merging [UDP]=0.4 mM, [GTP]=1.15 mM
Text: We have measured reactions involving agonist binding to a GPCR (G-protein coupled receptor), at low GPCR concentration, by using the associated G-protein hydrolysis of GTP as the source of the amplified heat of reaction. Most of the heat in this example is from GTP hydrolysis by G-proteins activated by a GPCR with a bound agonist. GPCRs are transmembrane proteins that bind […] (e.g. agonist or inhibitor) on the extracellular side and, upon receptor binding, cause a G-protein (also a membrane protein) on the intracellular side to exchange GDP for GTP. After binding GTP, the G-protein dissociates from the GPCR, and the α subunit dissociates from the β-γ complex. The α subunit and β-γ complex can then migrate independently along the membrane and interact with targets.
Explaining this measurement in terms of FIG. 2A, the GPCR is the primary enzyme 44. We refer to the GPCR as an enzyme because it catalyzes the exchange of GDP for GTP on the G-protein and the subsequent dissociation of the α subunit of the G-protein from the β-γ complex. The G-protein before the GDP-GTP exchange and dissociation can be considered the substrate 40. The GPCR is also […], and as such it is activated in this example by binding of agonist, which is therefore an activator 42. The products 46 of the primary enzymatic reaction are the α subunit and β-γ complex of the dissociated G-protein. […]

T1 sequence (Q15077 whole entry, the tested form may be a part, one chain of several): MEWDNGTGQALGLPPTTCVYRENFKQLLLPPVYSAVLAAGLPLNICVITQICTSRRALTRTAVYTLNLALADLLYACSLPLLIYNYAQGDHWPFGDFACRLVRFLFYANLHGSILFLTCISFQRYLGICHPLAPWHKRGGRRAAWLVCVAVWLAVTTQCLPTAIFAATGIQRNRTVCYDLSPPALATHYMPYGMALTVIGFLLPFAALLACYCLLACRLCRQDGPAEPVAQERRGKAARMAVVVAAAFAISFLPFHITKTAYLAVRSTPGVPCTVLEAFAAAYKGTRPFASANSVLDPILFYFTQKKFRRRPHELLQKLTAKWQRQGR

SMILES: O=c1ccn([C@@H]2O[C@H](COP(=O)(O)OP(=O)(O)O)[C@@H](O)[C@H]2O)c(=O)[nH]1 [UDP]
- nanocalorimeter signal magnitude (differential temperature) (fragmented membranes with over-expressed P2Y6, 1 mg/ml total protein, 250 nL drops): 1.2 m° C.
- duration of nanocalorimeter signal after the drops are merged (fragmented membranes with over-expressed P2Y6): 1 to 2 s

Source: US7745161B2, “Amplification of enzymatic reactions for use with an enthalpy array” (Palo Alto Research Center Incorporated, priority 2003, dated 2010)
